Read-outs that look alike come from different tables or passages of the source.
Columns and labels:
[1] = system: L1210 cells; test: Cytostatic assay, L1210; type: cell-based; conditions: Mus musculus, Table 2
Experimental: (§1) To each well of a 96-well microtiter plate were added 5-7.5×10^4 cells and a given amount of the test compound. The cells were allowed to proliferate for 48 h to 96 h (depending on the nature of the cell line) at 37° C. in a humidified CO2-controlled atmosphere. At the end of the incubation period, the cells were counted in a Coulter Counter (Coulter Electronics Ltd, Harpenden Herts, United Kingdom).

[2] = system: HUT-78 cells; test: Cytostatic assay, HUT-78; type: cell-based; conditions: Homo sapiens, HuT78; Table 2
Method in brief: (§2)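 Each cell line grows in the presence of compound for 48 h to 96 h, the duration chosen per line, at 37° C in a humid CO2-regulated incubator. Seeding is 5-7.5×10^4 cells per well, and final counts come from a Coulter counter.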

[3] = system: Raji, human B-lymphoma cells; test: Cytostatic assay, Raji; type: cell-based; conditions: Table 2
Method in brief: as §2

[4] = system: Caki-2 kidney carcinoma cells; test: Cytostatic assay, Caki-2; type: cell-based; conditions: Homo sapiens, Table 3
Method in brief: as §2

[5] = system: DU145 (UZ) prostate cancer cells; test: Cytostatic assay, DU145 (UZ); type: cell-based; conditions: Homo sapiens, DU-145; Table 4
Method in brief: as §2

[6] = system: HEL embryonic lung fibroblast cells; test: Cytostatic assay, HEL; type: cell-based; conditions: Homo sapiens, Table 3
Method in brief: as §2

[7] = system: MT-4 cells; test: Cytostatic assay, MT-4; type: cell-based; conditions: Homo sapiens, MT4; Table 2
Method in brief: as §2

[8] = system: Sup T1 cells; test: Cytostatic assay, Sup T1; type: cell-based; conditions: Homo sapiens, Table 2, read-out: Cytostatic activity (μM) Sup T 1
Method in brief: as §2

[9] = system: Molt4/C8 cells; test: Cytostatic assay, Molt4/C8; type: cell-based; conditions: Table 2
Method in brief: as §2

[10] = system: PC3 (rega) prostate cancer cells; test: Cytostatic assay, PC3 (rega); type: cell-based; conditions: Table 4
Method in brief: as §2

[11] = system: Huh-7 hepatoma cells; test: Cytostatic assay, Huh-7; type: cell-based; conditions: Homo sapiens, Table 4
Method in brief: as §2

[12] = system: CEM cells; test: Cytostatic assay, CEM; type: cell-based; conditions: Homo sapiens, CCRF-CEM
Method in brief: as §2

[13] = system: MT-2 cells; test: Cytostatic assay, MT-2; type: cell-based; conditions: Homo sapiens, MT2; Table 2
Method in brief: as §2

[14] = system: HepG2C3A hepatoma cells; test: Cytostatic assay, HepG2C3A; type: cell-based; conditions: Homo sapiens, HepG2/C3A; Table 4
Method in brief: as §2

[15] = system: HL60, human leukemia cells; test: Cytostatic assay, HL-60; type: cell-based; conditions: Table 2
Method in brief: as §2

[16] = system: PNT1A (UZ) prostate cells; test: Cytostatic assay, PNT1A (UZ); type: cell-based; conditions: Homo sapiens, Table 4
Method in brief: as §2

[17] = system: HT29 colorectal carcinoma cells; test: Cytostatic assay, HT29; type: cell-based; conditions: Homo sapiens, HT-29; Table 3
Method in brief: as §2

[18] = system: HeLa cervix carcinoma cells; test: Cytostatic assay, HeLa; type: cell-based, human; conditions: Homo sapiens; Table 3; read-out: Cytostatic activity (μM) Hela
Method in brief: as §2

[19] = system: U87 glioma cells; test: Cytostatic assay, U87; type: cell-based; conditions: Homo sapiens, U-87 MG; Table 3
Method in brief: as §2

[20] = system: 22Rv1 (UZ) prostate cancer cells; test: Cytostatic assay, 22Rv1 (UZ); type: cell-based; conditions: Homo sapiens, Table 4
Method in brief: as §2

[21] = system: Caki-1 kidney carcinoma cells; test: Cytostatic assay, Caki-1; type: cell-based; conditions: Homo sapiens, Table 3
Method in brief: as §2

[22] = system: PLC/PRF/5 hepatoma cells; test: Cytostatic assay, PLC/PRF/5; type: cell-based; conditions: Homo sapiens, Table 4
Method in brief: as §2

[23] = system: C8166 cells; test: Cytostatic assay, C8166; type: cell-based; conditions: Homo sapiens, Table 2
Method in brief: as §2

[24] = system: THP-1, human monocytic cells; test: Cytostatic assay, THP-1; type: cell-based; conditions: Table 2
Method in brief: as §2

[25] = system: BAEC aortic endothelial cells; test: Cytostatic assay, BAEC; type: cell-based, bovine; conditions: Bos taurus, Table 3
Method in brief: as §2

[26] = system: OST TK- osteosarcoma cells; test: Cytostatic assay, OST TK-; type: cell-based; conditions: Homo sapiens; Table 3
Method in brief: as §2

[27] = system: LNCaP (UZ) prostate cancer cells; test: Cytostatic assay, LNCaP (UZ); type: cell-based; conditions: Homo sapiens, Table 4
Method in brief: as §2

[28] = system: MCF-7 mammary carcinoma cells; test: Cytostatic assay, MCF-7; type: cell-based; conditions: Homo sapiens, MCF7; Table 3
Method in brief: as §2

[29] = system: broad variety of tumor cell lines; test: Cytostatic assays, summary over the panel of cell lines (Tables 2-4); type: cell-based; conditions: range over the cell lines of Tables 2-4; read-out: IC50 range (antiproliferative activity)
Experimental: as §1

[30] = system: PC-3 (UZ) prostate cancer cells; test: Cytostatic assay, PC-3 (UZ); type: cell-based; conditions: Table 4
Method in brief: as §2

[31] = system: 293T embryonic kidney cells; test: Cytostatic assay, 293T; type: cell-based; conditions: Homo sapiens, HEK-293T; Table 3
Method in brief: as §2

[32] = system: FM3A mammary carcinoma cells; test: Cytostatic assay, FM3A; type: cell-based, murine; conditions: Mus musculus, Table 3
Method in brief: as §2

[33] = system: U937, human monocytic cells; test: Cytostatic assay, U937; type: cell-based; conditions: U-937, Table 2
Method in brief: as §2

[34] = system: BPH-1 (UZ); test: Cytostatic assay, BPH-1 (UZ); type: cell-based; conditions: Homo sapiens, Table 4
Method in brief: as §2

[35] = system: DNA synthesis in CEM cells; test: Antimetabolic activity assay, [CH3-3H]dThd incorporation (DNA synthesis), CEM; type: cell-based; conditions: Homo sapiens, CCRF-CEM, incorporation into TCA-insoluble material
Experimental: (§3) Radiolabeled precursors of DNA synthesis ([^3H-methyl]dThd), RNA synthesis ([5-^3H]Urd), and protein synthesis ([4,5-^3H]leu) were added to 10^5 CEM cell cultures in the 200 μl-wells of a microtiter plate at 1 μCi for each precursor in the presence of varying concentrations of the test compounds (5-fold dilution series). The cells were allowed to proliferate for 20 hrs at 37° C. in a humidified, CO2-controlled atmosphere. At the end of the incubation period, the contents of the wells were brought onto 25-mm glass fiber filters and further processed for measurement of acid-insoluble radioactivity.

[36] = system: protein synthesis in CEM cells; test: Antimetabolic activity assay, [4,5-3H]leucine incorporation (protein synthesis), CEM; type: cell-based; conditions: Homo sapiens, CCRF-CEM, incorporation into TCA-insoluble material
Experimental: as §3

[37] = system: DNA synthesis in Raji cells; test: Antimetabolic activity assay, [CH3-3H]dThd incorporation (DNA synthesis), Raji; type: cell-based; conditions: Homo sapiens, incorporation into TCA-insoluble material
Experimental: [The procedure below names another cell line; the source lists this cell line under the same test.] as §3

[38] = system: RNA synthesis in CEM cells; test: Antimetabolic activity assay, [5-3H]uridine incorporation (RNA synthesis), CEM; type: cell-based; conditions: Homo sapiens, CCRF-CEM, incorporation into TCA-insoluble material
Experimental: as §3

[39] = system: RNA synthesis in Raji cells; test: Antimetabolic activity assay, [5-3H]uridine incorporation (RNA synthesis), Raji; type: cell-based; conditions: Homo sapiens, incorporation into TCA-insoluble material
Experimental: [The procedure below names another cell line; the source lists this cell line under the same test.] as §3

[40] = system: protein synthesis in Raji cells; test: Antimetabolic activity assay, [4,5-3H]leucine incorporation (protein synthesis), Raji; type: cell-based; conditions: Homo sapiens, incorporation into TCA-insoluble material
Experimental: [The procedure below names another cell line; the source lists this cell line under the same test.] as §3

[41] = Table 1a, read-out: IC50 μM (CEM)
[42] = Table 2, read-out: Cytostatic activity (μM) CEM

Row | Compound | IC50 [2] | IC50 [3] | IC50 [4] | IC50 [5] | IC50 [6] | IC50 [7] | IC50 [8] | IC50 [9] | IC50 [10] | IC50 [11] | IC50 [12, 41] | IC50 [12, 42] | IC50 [13] | IC50 [14] | IC50 [15] | IC50 [16] | IC50 [17] | IC50 [18] | IC50 [19] | IC50 [20] | other results
1 | COc1ccc(-c2cc(C#N)c(N)s2)cc1 [TR582, 2-Amino-5-(4-methoxy-phenyl)-thiophene-3-carbonitrile] | > 200 µM | > 100 µM | ≥ 200 µM | > 100 µM | 33 ± 0.71 µM | 76 ± 35 µM | > 200 µM | 275 ± 89 µM | 69 ± 21 µM | > 100 µM | 233 µM | 233 ± 29 µM | ≥ 161 µM | ≥ 100 µM | ≥ 135 µM | > 100 µM | > 100 µM | 168 ± 15 µM | > 100 µM | 34 ± 26 µM | IC50 [1]: 230 ± 65 µM; IC50 [21]: 19 ± 18 µM; IC50 [22]: 49 ± 3.5 µM; IC50 [23]: > 200 µM; IC50 [24]: 124 ± 25 µM; IC50 [25]: > 100 µM; IC50 [26]: 134 ± 69 µM; IC50 [27]: 4.8 ± 3.4 µM; IC50 [28]: 117 ± 58 µM; IC50 [29]: 24 to 320 µM; IC50 [30]: > 100 µM; IC50 [31]: > 100 µM; IC50 [32]: 320 ± 14 µM; IC50 [33]: > 200 µM; IC50 [34]: > 100 µM
2 | COC(=O)c1cc(CCc2cc(OC)ccc2OC)sc1N [TR584, 2-Amino-5-[2-(2,5-dimethoxy-phenyl)-ethyl]-thiophene-3-carboxylic acid methyl ester] | 2.6 ± 2.1 µM | 2.2 ± 0.28 µM | 0.93 ± 0.28 µM | 1.6 µM | 0.87 ± 0.014 µM | 1.6 ± 0.21 µM | 0.61 ± 0.26 µM | 0.42 ± 0.11 µM | 0.36 ± 0.18 µM | 2.2 ± 0.49 µM | 1.6 µM | 1.6 ± 0.071 µM | 4.2 ± 0.79 µM | 4.5 ± 1.7 µM | 0.89 ± 0.3 µM | 0.77 ± 0.31 µM | 1.8 ± 0.21 µM | 0.83 ± 0.25 µM | 1.8 ± 0.071 µM | 0.31 ± 0.087 µM | IC50 [35]: 7.5 ± 5.5 µM; IC50 [21]: 2.5 ± 0.6 µM; IC50 [36]: 1.1 ± 0.5 µM; IC50 [22]: 1.3 ± 0.21 µM; IC50 [23]: 1.4 ± 0.76 µM; IC50 [24]: 3.1 ± 0.07 µM; IC50 [25]: 2 ± 0.28 µM; IC50 [26]: 0.68 ± 0.33 µM; IC50 [27]: 0.38 ± 0.11 µM; IC50 [28]: 0.93 ± 0.23 µM; IC50 [37]: 82 ± 6 µM; IC50 [38]: 2.4 ± 0.2 µM; IC50 [30]: 0.81 ± 0.42 µM; IC50 [31]: 1.9 µM; IC50 [39]: ≥ 100 µM; IC50 [32]: 2.5 ± 0.28 µM; IC50 [40]: 62 ± 1 µM; IC50 [33]: 4.2 ± 0.07 µM; IC50 [34]: 1.3 ± 0.071 µM
3 | COC(=O)c1cc(CCc2ccccn2)sc1N [TR596, 2-Amino-5-(2-pyridin-2-yl-ethyl)-thiophene-3-carboxylic acid methyl ester] | 142 ± 83 µM | 76 ± 35 µM | > 200 µM | > 100 µM | 43 ± 9.2 µM | > 100 µM | 99 µM | 21 ± 4 µM | 8.5 ± 7.8 µM | 46 ± 34 µM | 63 µM | 63 ± 7.8 µM | 48 ± 7.1 µM | 69 ± 45 µM | 73 ± 30 µM | > 100 µM | > 100 µM | 45 ± 3 µM | > 100 µM | 77 ± 27 µM | IC50 [1]: 101 ± 28 µM; IC50 [21]: 17 ± 13 µM; IC50 [22]: > 100 µM; IC50 [23]: ≥ 200 µM; IC50 [24]: 116 ± 49 µM; IC50 [25]: > 100 µM; IC50 [26]: 135 ± 92 µM; IC50 [27]: 4.3 ± 3.2 µM; IC50 [28]: 72 ± 45 µM; IC50 [30]: 8.6 ± 0.21 µM; IC50 [31]: > 100 µM; IC50 [32]: 210 ± 17 µM; IC50 [33]: > 200 µM; IC50 [34]: > 100 µM
4 | COC(=O)c1cc(CCc2cccnc2)sc1N [TR597, 2-Amino-5-(2-pyridin-3-yl-ethyl)-thiophene-3-carboxylic acid methyl ester] | 59 ± 33 µM | > 100 µM | > 200 µM | 60 ± 21 µM | ≥ 100 µM | > 100 µM | 147 ± 66 µM | 47 ± 15 µM | 6.3 ± 4.7 µM | 78 ± 32 µM | 50 µM | 50 ± 6.4 µM | 38 ± 15 µM | > 100 µM | 63 ± 15 µM | > 100 µM | > 100 µM | 170 ± 25 µM | > 100 µM | ≥ 100 µM | IC50 [1]: 235 ± 49 µM; IC50 [21]: 7.7 ± 0.5 µM; IC50 [22]: > 100 µM; IC50 [23]: ≥ 200 µM; IC50 [24]: > 200 µM; IC50 [25]: > 100 µM; IC50 [26]: ≥ 111 µM; IC50 [27]: 7.4 ± 0.75 µM; IC50 [28]: 71 ± 30 µM; IC50 [30]: 12 ± 5.5 µM; IC50 [31]: > 100 µM; IC50 [32]: 164 ± 30 µM; IC50 [33]: > 200 µM; IC50 [34]: > 100 µM
